The text below walks through data of ChEMBL document CHEMBL1152465, “Comparative evaluation of the inhibitory activities of a series of pyrimidinedione congeners that inhibit human immunodeficiency virus types 1 and 2” (Antimicrob Agents Chemother, 2008).

The test system of data set [1] is Human immunodeficiency virus 2. Description: Antiviral activity against HIV2 ROD infected in human CEM-SS cells assessed as inhibition of virus-induced cytopathic effect by XTT assay. The data set is classed as functional, organism-based, ISOLATE ROD. The following applies: Human immunodeficiency virus 2, ISOLATE ROD, CEM-SS; read-out: EC50. (In general: Damage to the host cells serves as the signal in cytopathic effect assays.)

Data set [2] can be described thus: Therapeutic index, ratio of TC50 for human CEM-SS cells to EC50 for HIV1 RF infected in human CEM-SS cells. The following applies: read-out: TI. The format is cell-based.
Data set [3] is described as follows: Therapeutic index, ratio of TC50 for human CEM-SS cells to EC50 for HIV2 ROD infected in human CEM-SS cells. The data set is classed as cell-based. As to conditions: CEM-SS cells, read-out: TI.
In data set [4] the target is Human immunodeficiency virus type 1 reverse transcriptase (Human immunodeficiency virus 1, UniProt Q72547). Description: Inhibition of wild type HIV1 reverse transcriptase assessed as 32P-labeled GMP incorporation into nascent DNA strand.
The target of data set [5] is Human immunodeficiency virus type 1 reverse transcriptase (Human immunodeficiency virus 1, UniProt Q72547, K103N). Briefly: Inhibition of HIV1 reverse transcriptase K103N mutant assessed as 32P-labeled GMP incorporation into nascent DNA strand.
For data set [6], the system named is Human immunodeficiency virus 1. Description: Antiviral activity against HIV1 infected in human HeLa cells expressing CD4-LTR assessed as inhibition of viral entry-related beta galactosidase expression treated for 2 hrs followed by drug wash out measured after 48 hrs by MAGI assay. The data set is classed as functional, organism-based. The following applies: Human immunodeficiency virus 1, HeLa.

The nature of data set [7]: Cytotoxicity against human HeLa cells expressing CD4-LTR by XTT assay. The data set is classed as cell-based. As to conditions: read-out: TC50 (the source's name).
Data set [8] in a line: Therapeutic index, ratio of TC50 human HeLa cells expressing CD4-LTR to EC50 for HIV1 entry inhibition in human HeLa cells expressing CD4-LTR. As to conditions: read-out: TI. The format is cell-based.
Data set [9] has as its system Human immunodeficiency virus 1. Briefly: Antiviral activity against HIV1 infected in human CEM-SS cells assessed as inhibition of viral replication and virus-induced cytopathic effect by dose-response curve analysis. The format is functional. As to conditions: Human immunodeficiency virus 1, CEM-SS.
In data set [10] the test system is Human immunodeficiency virus 2. Briefly: Inhibition of HIV2 reverse transcriptase.
Data set [11] concerns Human immunodeficiency virus 2. Briefly: Antiviral activity against HIV2 assessed as inhibition of viral single round replication at early time point. The data set is classed as functional, organism-based.
The subject of data set [12] is Human immunodeficiency virus 2. Description: Antiviral activity against HIV2 assessed as inhibition of viral replication treated at time points after viral entry into host cells. The format is functional, organism-based.
The subject of data set [13] is Human immunodeficiency virus 2. Description: Inhibition of HIV2 reverse transcriptase assessed as 32P-labeled GMP incorporation into nascent DNA strand at highest concentration.
The subject of data set [14] is Human immunodeficiency virus 1. Description: Antiviral activity against HIV1 RF infected in human CEM-SS cells assessed as inhibition of virus-induced cytopathic effect by XTT assay. The data set is classed as functional, organism-based. As to conditions: Human immunodeficiency virus 1, RF.
The nature of data set [15]: Cytotoxicity against human CEM-SS cells by XTT assay. As to conditions: read-out: TC50 (the source's name). The format is cell-based. Background: Formazan colour is commonly taken as a measure of viable cells.

The source made the active and inactive calls. The rule behind the calls is not given here. Bounds are passed on as bounds.

`Cc1cc(C)cc(Sc2c(C(C)C)c(=O)[nH]c(=O)n2CCC2CC=CC2)c1`: the concentration for a half-maximal effect (EC50) is 6.2 µM in data set [1], 0.08 µM in data set [6] and 0.002 µM in [14]. Besides, the selectivity ratio in data set [2] came to 6530; in data set [3], 2.5; in data set [8], 173. In addition, the values for the concentration for half-maximal inhibition (IC50) in data set [4] and in data set [5] were 0.254 µM and 149 µM, respectively. The CC50 stood at 14.2 µM in data set [7] and 12.8 µM in data set [15]. In addition, the concentration for an effect of 99% (EC99) in data set [9] was found to be 1 µM. In addition, the result in data set [10], in [12] and in data set [13] was inactive. The outcome in data set [11] was Active.

On to `CCc1c(Oc2ccccc2)n(CC2CC=CC2)c(=O)[nH]c1=O`, for which the concentration giving a half-maximal response (EC50) stood at 32 µM in [1], 0.15 µM in [6] and 0.61 µM in data set [14]. The selectivity ratio in data set [2] is 127; in [3], 2.4; in data set [8], 527. In addition, the figures for the half-maximal inhibitory concentration (IC50) in [4] and in data set [5] were 2.62 µM and 48.3 µM, respectively. For the same molecule, the CC50 in data set [7] came to 76.9 µM; in data set [15], 76.2 µM. Also, the EC99 in [9] is 1 µM. Further, the result in [10], in data set [12] and in data set [13] was inactive. In [11], the result was Active.

Turning to `Cc1cc(C)cc(Sc2c(C(C)C)c(=O)[nH]c(=O)n2CC2CCC2)c1`, the half-maximal effective concentration (EC50) in data set [1] came out at 1.6 µM; in data set [6] it was 0.28 µM; in [14], 0.00016 µM. The selectivity ratio in data set [2] came to 9290; in [3] it was 3.9; in [8] it was 37. The half-maximal inhibitory concentration (IC50) in [4] worked out at 0.02 µM; in data set [5], 182 µM. In addition, the values for the CC50 in data set [7] and in [15] were 10.4 µM and 6.1 µM, respectively. In addition, the concentration for an effect of 99% (EC99) in [9] worked out at 1 µM. The result in data set [10], in data set [12] and in data set [13] was inactive. Besides, the outcome in data set [11] was Active.

For the molecule `CCc1c(C(=O)c2cc(C)cc(C)c2)n(CCC2CC=CC2)c(=O)[nH]c1=O`, the EC50 in [1] was 1.5 µM; in [6] it was 1.25 µM; in data set [14], 0.013 µM. The selectivity ratio came to 5660 in [2], 8.8 in data set [3] and 36 in data set [8]. The IC50 in data set [4] is 0.018 µM; in [5], 1.9 µM. Besides, the CC50 came to 45 µM in data set [7] and 13.4 µM in data set [15]. For the same molecule, the EC99 in data set [9] came out at 1 µM. In addition, the outcome in data set [10], in data set [12] and in data set [13] was inactive. For the same molecule, the outcome in data set [11] was Active.

As to `Cc1cc(C)cc(Sc2c(C(C)C)c(=O)[nH]c(=O)n2CCC2C=CCC2)c1` (stereo not given), the values for the concentration giving a half-maximal response (EC50) in [1], in data set [6] and in data set [14] were 4.8 µM, 0.009 µM and 0.021 µM, respectively. Also, the values for the selectivity ratio in [2], in data set [3] and in data set [8] were 1850, 5.4 and 3650, respectively. In addition, the IC50 in data set [4] is 0.246 µM; in [5], over 260 µM. The CC50 stood at 31.9 µM in [7] and 25.8 µM in data set [15]. For the same molecule, the concentration for an effect of 99% (EC99) in data set [9] was determined as 1 µM. Besides, the result in data set [10], in [12] and in data set [13] was inactive. The result in data set [11] was Active.

Take `Cc1cc(C)cc(C(=O)c2c(C(C)C)c(=O)[nH]c(=O)n2CC2CCC2)c1`: the figures for the 50% effective concentration (EC50) in data set [1], in data set [6] and in data set [14] were 0.4 µM, 0.06 µM and 0.012 µM, respectively. For the same molecule, the selectivity ratio in data set [2] amounted to 2870; in data set [3], 86.4; in data set [8] it was 606. For the same molecule, the IC50 was 0.068 µM in [4] and 1.81 µM in data set [5]. The CC50 in data set [7] and in data set [15] was 34.2 µM throughout. Further, in data set [9], the 99% effect concentration (EC99) stood at 1 µM. Besides, the outcome in [10], in data set [12] and in [13] was inactive. Further, the outcome in data set [11] was Active.

Regarding `CCc1c(Sc2cc(C)cc(C)c2)n(CCC2CCCC2)c(=O)[nH]c1=O`, the 50% effective concentration (EC50) amounted to 26.9 µM in [1], 0.48 µM in data set [6] and 0.18 µM in [14]. For the same molecule, the results for the selectivity ratio in data set [2], in data set [3] and in [8] were 154, 1.1 and 60, respectively. For the same molecule, the IC50 came to 2.19 µM in data set [4] and 36.8 µM in data set [5]. Moreover, the CC50 in [7] and in data set [15] was 29 µM each time. For the same molecule, the 99% effect concentration (EC99) in [9] amounted to 1 µM. Also, the result in data set [10], in data set [12] and in data set [13] was inactive. Moreover, the result in [11] was Active.

Regarding `Cc1cc(C)cc(Oc2c(C(C)C)c(=O)[nH]c(=O)n2CCC2CC=CC2)c1`, the results for the half-maximal effective concentration (EC50) in data set [1], in data set [6] and in data set [14] were 1.4 µM, 2.24 µM and 0.02 µM, respectively. For the same molecule, the values for the selectivity ratio in data set [2], in [3] and in [8] were 918, 7.3 and 6, respectively. Moreover, the figures for the IC50 in data set [4] and in [5] were 0.176 µM and 2.3 µM, respectively. In addition, the CC50 worked out at 14.2 µM in data set [7] and 10.3 µM in [15]. The 99% effect concentration (EC99) in data set [9] came to 1 µM. The result in data set [10], in data set [12] and in [13] was inactive. Besides, the outcome in data set [11] was Active.

Turning to `Cc1cc(C)cc(C(=O)c2c(C(C)C)c(=O)[nH]c(=O)n2Cc2ccccc2)c1`, the results for the concentration for a half-maximal effect (EC50) in data set [1], in data set [6] and in data set [14] were 0.1 µM, 0.03 µM and 0.027 µM, respectively. For the same molecule, the selectivity ratio in [2] was 840; in data set [3], 223; in data set [8] it was 726. The IC50 stood at 0.011 µM in [4] and 1.4 µM in data set [5]. Besides, the values for the CC50 in [7] and in data set [15] were 20.1 µM and 17.8 µM, respectively. In addition, in data set [9], the concentration for an effect of 99% (EC99) was 1 µM. Moreover, the outcome in data set [10], in data set [12] and in data set [13] was inactive. Also, the result in data set [11] was Active.

On to `CCc1c(Oc2cc(C)cc(C)c2)n(CCC2C=CCC2)c(=O)[nH]c1=O` (stereo not given), for which the EC50 in data set [1] is 0.7 µM; in data set [6] it was 0.06 µM; in [14] it was 0.0019 µM. Also, the figures for the selectivity ratio in data set [2], in data set [3] and in data set [8] were 570000, over 1650 and 17600, respectively. Besides, the half-inhibitory concentration (IC50) in data set [4] came out at 0.21 µM; in [5] it was 1.96 µM. The values for the CC50 in data set [7] and in data set [15] were 1110 µM and 1100 µM, respectively. Also, the concentration for an effect of 99% (EC99) in data set [9] worked out at 1 µM. The result in data set [10], in data set [12] and in data set [13] was inactive. For the same molecule, the result in [11] was Active.

As for `CCc1c(Oc2cc(C)cc(C)c2)n(CC2=CCCC2)c(=O)[nH]c1=O`, the results for the 50% effective concentration (EC50) in data set [1], in [6] and in data set [14] were 1.3 µM, 0.009 µM and 0.016 µM, respectively. For the same molecule, the selectivity ratio came to 4080 in [2], 47.6 in [3] and 7280 in data set [8]. Further, the half-inhibitory concentration (IC50) was 0.122 µM in [4] and 0.22 µM in data set [5]. The CC50 in [7] and in data set [15] was 62.9 µM in each case. For the same molecule, the 99% effect concentration (EC99) in data set [9] turned out to be 1 µM. Further, the result in data set [10], in [12] and in [13] was inactive. Moreover, in data set [11], the result was Active.

Regarding `CC(C)c1c(C(=O)c2ccccc2)n(CC2CC=CC2)c(=O)[nH]c1=O`, the EC50 in [1] was 18.1 µM; in [6] it was 0.8 µM; in [14], 0.0059 µM. Further, the selectivity ratio is 200000 in [2], over 65.5 in [3] and 1480 in data set [8]. Moreover, the IC50 in data set [4] is 0.18 µM; in data set [5] it was over 295 µM. Also, the CC50 in [7] and in data set [15] was 1180 µM in each case. The EC99 in [9] was 1 µM. The result in [10], in data set [12] and in data set [13] was inactive. Further, the outcome in data set [11] was Active.

As usually defined, the EC50 is the concentration at which the effect is half-maximal. As a reminder, the IC50 is the midpoint of a concentration-inhibition curve. A word on the EC99: it is the concentration needed for an effect of 99%.
